The source of these data is ChEMBL document CHEMBL4002569, “Improved anticancer and antiparasitic activity of new lawsone Mannich bases” (Eur J Med Chem, 2017).

Active and inactive are the calls of the source. No cut-off for these calls is given here.

In data set [1] the test system is 518A2. The data set is described as follows: Antiproliferative activity against human 518A2 cells after 72 hrs by MTT assay. It is filed as functional, cell-based. The note with it: 518A2, 72 h. On the technique in general: Tetrazolium dyes change colour on reduction, which living cells bring about.
For a further data set, the system named is HCT-116. Nature of the data set: Antiproliferative activity against human HCT116 cells after 72 hrs by MTT assay. The data set is classed as functional, cell-based. To be noted: HCT-116, 72 h.
A further data set relates to KB-V1. Nature of the data set: Antiproliferative activity against vinblastine-resistant human KBV1 cells after 72 hrs by MTT assay. The data set is classed as functional, cell-based. The note with it: KB-V1, 72 h.
For the next data set, the system named is PANC-1. Nature of the data set: Antiproliferative activity against human PANC1 cells after 72 hrs by MTT assay. It is filed as functional, cell-based. The note with it: PANC-1, 72 h.
In data set [2] the test system is MDA-MB-231. Nature of the data set: Antiproliferative activity against human MDA-MB-231 cells at >10 to 25 uM after 96 hrs by MTT assay. The data set is classed as functional, cell-based.
Data set [3] relates to BXPC-3. The data set is described as follows: Antiproliferative activity against human BxPC3 cells at >10 to 25 uM after 96 hrs by MTT assay. It is filed as functional, cell-based.
Data set [4] has as its system PC-3. The data set is described as follows: Antiproliferative activity against human PC3 cells at >10 to 25 uM after 96 hrs by MTT assay. It is filed as functional, cell-based.
Data set [5] relates to MDA-MB-231. The data set is described as follows: Antiproliferative activity against human MDA-MB-231 cells at <10 uM after 96 hrs by MTT assay. The data set is classed as functional, cell-based.
The test system of data set [6] is BXPC-3. The data set is described as follows: Antiproliferative activity against human BxPC3 cells at <10 uM after 96 hrs by MTT assay. The data set is classed as functional, cell-based.
For data set [7], the system named is PC-3. Nature of the data set: Antiproliferative activity against human PC3 cells at <10 uM after 96 hrs by MTT assay. The data set is classed as functional, cell-based.
Data set [8] relates to 518A2. The data set is described as follows: Induction of reactive oxygen species generation in human 518A2 cells at 0.1 uM after 24 hrs by NBT assay relative to control. The data set is classed as functional.
Data set [9] concerns 518A2. The data set is described as follows: Induction of reactive oxygen species generation in human 518A2 cells at 0.5 uM after 24 hrs by NBT assay relative to control. The data set is classed as functional.
Data set [10] concerns Trypanosoma brucei brucei. The data set is described as follows: Antitrypanosomal activity against bloodstream trypomastigote form of Trypanosoma brucei brucei 65.3 […] after 72 hrs by Alamar Blue assay. The data set is classed as functional, cell-based. The note with it: Trypanosoma brucei, 65.3, 72 h. Background: Alamar Blue is a resazurin reagent that responds to reducing activity.

Data set [11] concerns Trypanosoma brucei brucei. Nature of the data set: Antitrypanosomal activity against bloodstream trypomastigote form of Trypanosoma brucei brucei 65.3 assessed as deformation of microtubule cytoskeleton at 10 uM after 3 to 6 hrs by DAPI staining-based fluorescence microscopic method. It is filed as functional.
For data set [12], the system named is MDA-MB-231. Nature of the data set: Antiproliferative activity against human MDA-MB-231 cells at <25 uM after 96 hrs by MTT assay. It is filed as functional, cell-based.
For data set [13], the system named is BXPC-3. Nature of the data set: Antiproliferative activity against human BxPC3 cells at <25 uM after 96 hrs by MTT assay. The data set is classed as functional, cell-based.
The subject of data set [14] is PC-3. Nature of the data set: Antiproliferative activity against human PC3 cells at <25 uM after 96 hrs by MTT assay. It is filed as functional, cell-based.
Data set [15] has as its system MDA-MB-231. Nature of the data set: Antiproliferative activity against human MDA-MB-231 cells at 1 to 50 uM after 96 hrs by MTT assay. The data set is classed as functional, cell-based.
Data set [16] concerns BXPC-3. The data set is described as follows: Antiproliferative activity against human BxPC3 cells at 1 to 50 uM after 96 hrs by MTT assay. The data set is classed as functional, cell-based.
In data set [17] the test system is PC-3. Nature of the data set: Antiproliferative activity against human PC3 cells at 1 to 50 uM after 96 hrs by MTT assay. It is filed as functional, cell-based.
For data set [18], the system named is Trypanosoma brucei brucei. Nature of the data set: Antitrypanosomal activity against bloodstream trypomastigote form of Trypanosoma brucei brucei 65.3 assessed as deformation of microtubule cytoskeleton at 1 uM after 0.5 to 24 hrs by DAPI staining-based fluorescence microscopic method. The data set is classed as functional.
Data set [19] deals with Trypanosoma brucei brucei. The data set is described as follows: Antitrypanosomal activity against bloodstream trypomastigote form of Trypanosoma brucei brucei 65.3 assessed as decrease in parasite motility at 1 uM after 0.5 to 24 hrs by DAPI staining-based fluorescence microscopic method relative to control. It is filed as functional.
The subject of data set [20] is HeLa. Nature of the data set: Cytotoxicity against human HeLa cells assessed as effect on cytoskeleton at 10 uM after 1 to 9 hrs by DAPI staining-based fluorescence microscopic method. It is filed as cell-based.
In data set [21] the test system is HeLa. The data set is described as follows: Cytotoxicity against human HeLa cells assessed as effect on cell viability at 10 uM after 1 to 9 hrs by DAPI staining-based fluorescence microscopic method.
Data set [22] has as its system Trypanosoma brucei brucei. Nature of the data set: Antitrypanosomal activity against bloodstream trypomastigote form of Trypanosoma brucei brucei 65.3 assessed as cell debris of dead and lysed parasite at 10 uM after 12 to 24 hrs by DAPI staining-based fluorescence microscopic method. It is filed as functional.

Regarding `O=C1C(O)=C(C(NCc2ccc(F)c(F)c2)c2ccccn2)C(=O)c2ccccc21` (configuration not stated), the IC50 (as a rule, the concentration at which inhibition is half-maximal) with 518A2 [1] is 3.05 µM; in the data set with HCT-116 it was 5.68 µM; in the data set with KB-V1, 1.56 µM; with PANC-1, 7.72 µM.
For the compound `O=C1C(O)=C(C(NCc2ccccn2)c2ccc(F)c(F)c2)C(=O)c2ccccc21` (configuration not stated), the “growth inhibition (GI)” value in the data set with MDA-MB-231 [2], in the data set on BXPC-3 [3] and in the data set on PC-3 [4] was “Active” throughout. The “growth inhibition (GI)” value in the data set on MDA-MB-231 [5], in the data set with BXPC-3 [6] and with PC-3 [7] was “inactive” in each case.
Regarding `CCCCCCCNC(C1=C(O)C(=O)c2ccccc2C1=O)c1ccccn1` (configuration not stated), the IC50 stood at 2.58 µM in the data set with 518A2 [1]; 6.39 µM with HCT-116; 0.41 µM in the data set with KB-V1; 6.41 µM in the data set with PANC-1; 3.73 µM in [10]. For the same compound, the Activity in the data set with 518A2 [8] stood at 50%; in the data set with 518A2 [9], 70%. Moreover, the result in [11] was inactive.
As for `CCCCCCCNC(C1=C(O)C(=O)c2ccccc2C1=O)c1ccc(O)c(OC)c1` (configuration not stated), the “growth inhibition (GI)” value in the data set with MDA-MB-231 [12], with BXPC-3 [13] and in the data set on PC-3 [14] was “inactive” throughout.
Take `CCCCCCCCCCCCNC(C1=C(O)C(=O)c2ccccc2C1=O)c1ccc(F)c(F)c1` (configuration not stated): the “growth inhibition (GI)” value in the data set with MDA-MB-231 [2], in the data set on BXPC-3 [3] and with PC-3 [4] was “Active” in each case. Besides, the “growth inhibition (GI)” value in the data set on MDA-MB-231 [5], in the data set on BXPC-3 [6] and in the data set on PC-3 [7] was “inactive” in each case.
Turning to `CCCCCCCNC(C1=C(O)C(=O)c2ccccc2C1=O)c1ccc(F)c(F)c1` (configuration not stated), the “growth inhibition (GI)” value in the data set with MDA-MB-231 [2], in the data set with BXPC-3 [3] and in the data set on PC-3 [4] was “Active” in each case. In addition, the “growth inhibition (GI)” value with MDA-MB-231 [5], in the data set on BXPC-3 [6] and in the data set with PC-3 [7] was “inactive” throughout.
As for `CCCCCCCCCCCCCCNC(C1=C(O)C(=O)c2ccccc2C1=O)c1ccc(F)c(F)c1` (configuration not stated), the “growth inhibition (GI)” value with MDA-MB-231 [2], in the data set on BXPC-3 [3] and with PC-3 [4] was “Active” throughout. The “growth inhibition (GI)” value with MDA-MB-231 [5], with BXPC-3 [6] and with PC-3 [7] was “inactive” each time.
Turning to `CCCCCCCCCCCCCCNC(C1=C(O)C(=O)c2ccccc2C1=O)c1ccccn1` (configuration not stated), the “growth inhibition (GI)” value in the data set on MDA-MB-231 [15], in the data set on BXPC-3 [16] and in the data set with PC-3 [17] was “Active” in each case. The IC50 in the data set with 518A2 [1] amounted to 3.03 µM; in the data set on HCT-116, 2.41 µM; in the data set with KB-V1, 0.43 µM; in the data set on PANC-1, 3.93 µM; in [10] it was 0.35 µM. Also, the Activity was 50% with 518A2 [8], 70% in the data set on 518A2 [9], “Non-Toxic” in the data set with HeLa [20] and “Non-Toxic” in the data set with HeLa [21]. For the same compound, the outcome in data set [18], in [19] and in data set [22] was Active.
In the case of `COc1cc(C(NCc2ccccn2)C2=C(O)C(=O)c3ccccc3C2=O)ccc1O` (configuration not stated), the “growth inhibition (GI)” value in the data set with MDA-MB-231 [12], in the data set with BXPC-3 [13] and in the data set on PC-3 [14] was “inactive” each time.
Regarding `N=C(N)c1ccc(OCCCCCOc2ccc(C(=N)N)cc2)cc1` [PENTAMIDINE], the IC50 in [10] amounted to 0.005 µM.
As to `O=C1C(O)=C(C(NCc2ccccn2)c2ccccn2)C(=O)c2ccccc21` (configuration not stated), the IC50 with 518A2 [1] stood at 6.98 µM; with HCT-116 it was 6.77 µM; in the data set with KB-V1, 8.61 µM; in the data set on PANC-1, 17.6 µM.
With `CCCCCCCCCCCCCCCCNC(C1=C(O)C(=O)c2ccccc2C1=O)c1ccc(O)c(OC)c1` (configuration not stated), the “growth inhibition (GI)” value in the data set on MDA-MB-231 [15], in the data set on BXPC-3 [16] and with PC-3 [17] was “Active” each time. In addition, the IC50 in the data set on 518A2 [1] came out at 12.2 µM; with HCT-116 it was 11.4 µM; with KB-V1 it was 16.8 µM; in the data set on PANC-1, 7.94 µM.
On to `CCCCCCCCCCCCNC(C1=C(O)C(=O)c2ccccc2C1=O)c1ccccn1` (configuration not stated), for which the “growth inhibition (GI)” value in the data set with MDA-MB-231 [15], with BXPC-3 [16] and with PC-3 [17] was “Active” each time. Moreover, the IC50 in the data set on 518A2 [1] is 2.57 µM; in the data set on HCT-116 it was 3.46 µM; in the data set with KB-V1 it was 0.32 µM; in the data set with PANC-1 it was 1.79 µM; in data set [10], 0.646 µM. The Activity is recorded as 50% with 518A2 [8], 70% in the data set on 518A2 [9], “Non-Toxic” with HeLa [20] and “Non-Toxic” with HeLa [21]. The outcome in data set [18] and in [19] was Active.
On to `COc1cc(C(NCc2ccccc2)C2=C(O)C(=O)c3ccccc3C2=O)ccc1O` (configuration not stated), for which the “growth inhibition (GI)” value in the data set on MDA-MB-231 [12], in the data set on BXPC-3 [13] and in the data set with PC-3 [14] was “inactive” each time.
Turning to `CCCCCCCCCCCCCCCCNC(C1=C(O)C(=O)c2ccccc2C1=O)c1ccc(F)c(F)c1` (configuration not stated), the “growth inhibition (GI)” value in the data set on MDA-MB-231 [2], in the data set with BXPC-3 [3] and with PC-3 [4] was “Active” throughout. Moreover, the “growth inhibition (GI)” value in the data set with MDA-MB-231 [5], with BXPC-3 [6] and in the data set on PC-3 [7] was “inactive” each time.
